Test systems include PC-3; MDA-N; T47D; MDA-MB-435; BT-549; DU-145; LXFL 529.
Common to all, as to assay: NCI tumour cell line growth inhibition, 48 h

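A five-concentration, 48-hour dose response in 96-well plates underlies each endpoint, interpolated linearly between surrounding concentrations. GI50: concentration for 50% inhibition of growth.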 Activity calls are given as the source filed them. Cut-off read from the data, not from the text of the source: active = GI50 up to about 1.1 µM and inactive = higher.

Regarding `CC(=O)OC1CC[C@@]2(C)C(=CC[C@@H]3[C@@H]2CC[C@]2(C)Nc4nn(S(C)(=O)=O)cc4C[C@@H]32)C1` (some centres undefined), the GI50 in the test on PC-3 is 28.2 µM (inactive); in the test on MDA-N, 29 µM (inactive); in the test on T47D, 14.2 µM (inactive); in the test on MDA-MB-435, 20 µM (inactive); in the test on BT-549, 20.3 µM (inactive); with DU-145, 35.9 µM (inactive).
`Cc1cc(O)nc(NN2C(Cl)C(=O)C2c2c(O)ccc3ccccc23)n1` (centres undefined): the GI50 in the test with LXFL 529 is 15.2 µM (inactive).
Turning to `O=C(O)C12CC3CC(C1)C2C=C3P(=O)(O)O` (centres undefined), in the test on LXFL 529, the GI50 is > 100 µM (inactive).
`CCOC(=O)C1=NN(c2ccccc2)C2=CC(C)=NN(C)C(=S)N21`: the GI50 with PC-3, in the test on MDA-N, in the test with T47D, with MDA-MB-435, in the test on BT-549 and in the test with DU-145 was > 100 µM (inactive) each time.
Consider `CN1CN(C(=O)N2CN(C)C(=O)N(C)C2)CN(C)C1=O`, for which the GI50 with LXFL 529 is > 100 µM (inactive).
Consider `CCCCCCCCCC[C@@H](O)[C@@H]1CC[C@@H]([C@@H]2CC[C@@H]([C@@H](O)CCCCCCCCCCC(O)CC3=CC(C)OC3=O)O2)O1` (some centres undefined), for which the GI50 in the test with PC-3 was 5.04 µM (inactive); in the test with T47D, 0.984 µM (active); with DU-145, 3.98 µM (inactive).
Take `CC(=O)NNc1nc(C)c(C(=O)NNC(=O)C(=O)Nc2c(C)cccc2C(C)(C)C)s1`: in the test with LXFL 529, the GI50 is 69.8 µM (inactive).
For the compound `CCP(=S)(CC)CCl`, the GI50 in the test with PC-3, with MDA-N, in the test with T47D and in the test on DU-145 was > 100 µM (inactive) each time.
For `CC(C(=O)OCc1ccccc1)N(Cc1ccccc1)Cc1ccccc1` (centres undefined), in the test with LXFL 529, the GI50 was > 100 µM (inactive).

Source of the values: ChEMBL document CHEMBL1201862, “PubChem BioAssay data set” (2004).
